Experimental findings from ChEMBL document CHEMBL5338777, “Small-Molecule Modulators Targeting Toll-like Receptors for Potential Anticancer Therapeutics” (J Med Chem, 2023) are described below.

The target in test [1] is T1, TLR2/TLR6 (Homo sapiens, UniProt O60603+Q9Y2C9). The test is described as follows: Antagonist activity at human TLR2/TLR6. It counts as protein-complex assay.
The target in test [2] is T2, Toll-like receptor 1/2 (Homo sapiens, UniProt O60603+Q15399). Put plainly: Antagonist activity at human TLR1/TLR2. In kind it is protein-complex assay.
Test [3] concerns the target T2, Toll-like receptor 1/2. Put plainly: Antagonist activity at TLR1/TLR2 in HEK-Blue hTLR2 cells. It counts as cell-based.
In test [4] the target is T1, TLR2/TLR6. The test is described as follows: Antagonist activity at TLR2/TLR6 in human THP-1 cells. In kind it is cell-based.
In test [5] the target is T3, Toll-like receptor 7 (Homo sapiens, UniProt Q9NYK1).
T3 sequence (Q9NYK1 whole entry): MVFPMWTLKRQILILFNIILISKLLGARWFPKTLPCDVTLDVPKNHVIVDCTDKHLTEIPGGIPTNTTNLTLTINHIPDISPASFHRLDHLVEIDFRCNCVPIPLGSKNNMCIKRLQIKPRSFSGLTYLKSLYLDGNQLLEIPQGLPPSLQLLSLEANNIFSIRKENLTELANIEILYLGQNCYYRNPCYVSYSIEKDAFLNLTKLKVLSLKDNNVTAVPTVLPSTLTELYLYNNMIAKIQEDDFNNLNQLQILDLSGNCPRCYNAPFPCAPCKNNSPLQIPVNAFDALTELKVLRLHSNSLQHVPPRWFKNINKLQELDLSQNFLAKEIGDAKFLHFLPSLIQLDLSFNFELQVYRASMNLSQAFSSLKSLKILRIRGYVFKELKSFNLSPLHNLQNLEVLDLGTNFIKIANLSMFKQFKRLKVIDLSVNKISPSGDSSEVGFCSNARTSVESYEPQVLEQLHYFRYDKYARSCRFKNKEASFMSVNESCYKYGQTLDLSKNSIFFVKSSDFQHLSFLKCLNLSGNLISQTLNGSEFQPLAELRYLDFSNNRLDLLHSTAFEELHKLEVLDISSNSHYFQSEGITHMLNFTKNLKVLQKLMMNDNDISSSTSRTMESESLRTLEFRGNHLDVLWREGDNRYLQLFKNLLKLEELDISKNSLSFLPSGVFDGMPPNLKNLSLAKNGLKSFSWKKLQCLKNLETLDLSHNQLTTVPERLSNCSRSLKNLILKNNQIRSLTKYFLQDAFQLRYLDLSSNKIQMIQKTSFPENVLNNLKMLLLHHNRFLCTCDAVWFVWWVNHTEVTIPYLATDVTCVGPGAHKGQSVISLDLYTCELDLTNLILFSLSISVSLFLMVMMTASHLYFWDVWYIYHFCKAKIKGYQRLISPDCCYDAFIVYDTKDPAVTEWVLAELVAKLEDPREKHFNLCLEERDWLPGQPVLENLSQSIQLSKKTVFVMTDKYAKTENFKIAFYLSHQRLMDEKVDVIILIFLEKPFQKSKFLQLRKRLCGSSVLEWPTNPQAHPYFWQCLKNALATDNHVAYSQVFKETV
Description: (§1) Agonist activity at TLR7 (unknown origin)

The target in test [6] is T2, Toll-like receptor 1/2. Put plainly: Antagonist activity at TLR1/TLR2 (unknown origin). It counts as protein-complex assay.
Test [7] has as its target T4, Toll-like receptor 3 (Homo sapiens, UniProt O15455).
T4 sequence (O15455 whole entry): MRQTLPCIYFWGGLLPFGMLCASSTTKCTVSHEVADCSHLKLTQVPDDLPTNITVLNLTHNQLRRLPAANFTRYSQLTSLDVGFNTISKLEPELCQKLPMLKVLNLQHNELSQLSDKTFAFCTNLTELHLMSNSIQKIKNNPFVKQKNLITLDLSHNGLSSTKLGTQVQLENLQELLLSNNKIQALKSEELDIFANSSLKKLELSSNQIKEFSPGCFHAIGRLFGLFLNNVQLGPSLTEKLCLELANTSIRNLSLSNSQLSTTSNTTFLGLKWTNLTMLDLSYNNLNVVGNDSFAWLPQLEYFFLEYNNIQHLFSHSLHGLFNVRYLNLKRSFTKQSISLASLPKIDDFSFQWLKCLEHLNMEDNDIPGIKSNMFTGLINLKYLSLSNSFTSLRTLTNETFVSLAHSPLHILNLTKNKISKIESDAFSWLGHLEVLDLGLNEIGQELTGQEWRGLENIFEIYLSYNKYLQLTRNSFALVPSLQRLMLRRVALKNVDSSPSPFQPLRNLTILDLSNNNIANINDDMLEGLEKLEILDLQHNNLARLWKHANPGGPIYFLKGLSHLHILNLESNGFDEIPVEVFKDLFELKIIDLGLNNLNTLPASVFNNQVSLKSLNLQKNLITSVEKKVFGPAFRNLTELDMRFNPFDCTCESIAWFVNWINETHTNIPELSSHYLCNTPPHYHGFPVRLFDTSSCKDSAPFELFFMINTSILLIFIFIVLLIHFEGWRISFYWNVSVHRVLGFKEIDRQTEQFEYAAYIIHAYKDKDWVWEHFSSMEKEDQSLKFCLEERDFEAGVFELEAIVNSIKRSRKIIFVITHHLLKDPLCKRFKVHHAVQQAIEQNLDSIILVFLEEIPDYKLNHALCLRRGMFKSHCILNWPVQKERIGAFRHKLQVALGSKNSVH
Put plainly: Antagonist activity at TLR3 (unknown origin).

The target in test [8] is T5, Toll-like receptor 8 (Homo sapiens, UniProt Q9NR97).
T5 sequence (Q9NR97 whole entry): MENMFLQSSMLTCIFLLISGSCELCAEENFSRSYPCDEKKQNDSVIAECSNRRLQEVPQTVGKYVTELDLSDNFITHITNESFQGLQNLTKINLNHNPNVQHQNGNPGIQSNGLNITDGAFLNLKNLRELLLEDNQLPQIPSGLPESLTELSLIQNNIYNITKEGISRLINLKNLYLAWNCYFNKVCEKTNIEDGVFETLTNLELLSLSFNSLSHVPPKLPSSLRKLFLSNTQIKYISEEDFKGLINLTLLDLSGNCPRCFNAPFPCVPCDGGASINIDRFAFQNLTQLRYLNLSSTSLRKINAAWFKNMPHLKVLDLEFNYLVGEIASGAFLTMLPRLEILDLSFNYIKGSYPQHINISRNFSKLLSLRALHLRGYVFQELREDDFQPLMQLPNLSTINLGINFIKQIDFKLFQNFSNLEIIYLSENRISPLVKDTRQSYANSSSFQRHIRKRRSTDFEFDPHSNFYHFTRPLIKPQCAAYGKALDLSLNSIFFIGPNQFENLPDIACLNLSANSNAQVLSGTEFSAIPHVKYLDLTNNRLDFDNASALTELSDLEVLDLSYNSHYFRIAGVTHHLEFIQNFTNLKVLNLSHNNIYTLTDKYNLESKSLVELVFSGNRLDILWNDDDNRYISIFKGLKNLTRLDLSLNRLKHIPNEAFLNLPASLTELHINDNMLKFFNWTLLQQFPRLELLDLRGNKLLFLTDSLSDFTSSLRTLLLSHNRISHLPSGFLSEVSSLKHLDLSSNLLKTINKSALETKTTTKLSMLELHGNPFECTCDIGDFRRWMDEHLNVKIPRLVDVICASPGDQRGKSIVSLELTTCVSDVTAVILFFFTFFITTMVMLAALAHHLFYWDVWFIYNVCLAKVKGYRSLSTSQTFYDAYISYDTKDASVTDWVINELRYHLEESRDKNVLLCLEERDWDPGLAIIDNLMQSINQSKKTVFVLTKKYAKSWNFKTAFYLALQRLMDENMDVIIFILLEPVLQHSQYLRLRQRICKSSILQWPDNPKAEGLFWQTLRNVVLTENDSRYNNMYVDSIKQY
Put plainly: Binding affinity to human TLR8 expressed in HEK-Blue hTLR8 cells. In kind it is cell-based.

Test [9] addresses T2, Toll-like receptor 1/2.
Description: Agonist activity at TLR1/TLR2 in human THP-1 cells
Test [10] addresses T5, Toll-like receptor 8. Put plainly: Antagonist activity at human TLR8.
The target of test [11] is T5, Toll-like receptor 8.
Description: (§2) Agonist activity at TLR8 (unknown origin)
The target in test [12] is T3, Toll-like receptor 7. The source holds these as a separate data set.
Description: as §1
Test [13] addresses Toll-like receptor 5 (Homo sapiens, UniProt O60602). The test is described as follows: Antagonist activity at TLR5 (unknown origin).
Test [14] can be described thus: Antagonist activity at TLR2/TLR4 (unknown origin). Also on record: species or system Homo sapiens.
The target of test [15] is T5, Toll-like receptor 8. This is another data set of the same source.
Description: as §2
Test [16] deals with T6, Toll-like receptor 4 (Mus musculus, UniProt Q9QUK6).
T6 sequence (Q9QUK6 whole entry): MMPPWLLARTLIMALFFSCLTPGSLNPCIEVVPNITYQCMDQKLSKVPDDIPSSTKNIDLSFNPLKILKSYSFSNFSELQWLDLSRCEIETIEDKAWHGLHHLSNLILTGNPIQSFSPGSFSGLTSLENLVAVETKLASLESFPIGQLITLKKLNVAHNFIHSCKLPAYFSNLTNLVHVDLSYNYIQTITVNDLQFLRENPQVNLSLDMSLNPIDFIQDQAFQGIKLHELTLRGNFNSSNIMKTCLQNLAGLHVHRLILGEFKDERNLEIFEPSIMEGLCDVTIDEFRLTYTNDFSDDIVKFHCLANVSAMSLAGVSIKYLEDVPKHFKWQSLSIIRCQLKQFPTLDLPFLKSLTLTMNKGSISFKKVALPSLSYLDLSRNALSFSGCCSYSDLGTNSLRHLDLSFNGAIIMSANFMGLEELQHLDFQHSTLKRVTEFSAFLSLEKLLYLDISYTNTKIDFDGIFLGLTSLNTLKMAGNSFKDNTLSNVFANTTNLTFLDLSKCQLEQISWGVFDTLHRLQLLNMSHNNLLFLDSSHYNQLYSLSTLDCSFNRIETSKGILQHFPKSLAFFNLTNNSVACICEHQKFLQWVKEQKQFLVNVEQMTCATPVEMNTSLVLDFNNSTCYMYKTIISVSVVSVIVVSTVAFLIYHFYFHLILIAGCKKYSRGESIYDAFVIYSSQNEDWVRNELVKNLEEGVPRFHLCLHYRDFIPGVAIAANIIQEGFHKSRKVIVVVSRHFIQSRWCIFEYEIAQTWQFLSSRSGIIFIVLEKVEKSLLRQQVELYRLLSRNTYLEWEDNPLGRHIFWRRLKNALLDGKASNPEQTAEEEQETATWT
The test is described as follows: Antagonist activity at TLR4 in mouse peritoneal macrophages assessed as inhibition of IL-6 production. It counts as cell-based, Peritoneal macrophage.

Test [17] concerns the target T6, Toll-like receptor 4. The test is described as follows: Antagonist activity at TLR4 in mouse peritoneal macrophages assessed as inhibition of NO production. It counts as cell-based, Peritoneal macrophage.
Test [18] deals with T6, Toll-like receptor 4. Put plainly: Antagonist activity at TLR4 in mouse peritoneal macrophages assessed as inhibition of TNF-alpha production. It counts as cell-based, Peritoneal macrophage.
For test [19], the target named is Toll-like receptor 4 (Homo sapiens, UniProt O00206). Put plainly: Inhibition of TLR4 in human HEK293T cells co-expressing MD-2 receptor. In kind it is cell-based.

pEC50, pIC50, pKd: −log10 of the molar value.

Chain of Toll-like receptor 5 (O60602 whole entry): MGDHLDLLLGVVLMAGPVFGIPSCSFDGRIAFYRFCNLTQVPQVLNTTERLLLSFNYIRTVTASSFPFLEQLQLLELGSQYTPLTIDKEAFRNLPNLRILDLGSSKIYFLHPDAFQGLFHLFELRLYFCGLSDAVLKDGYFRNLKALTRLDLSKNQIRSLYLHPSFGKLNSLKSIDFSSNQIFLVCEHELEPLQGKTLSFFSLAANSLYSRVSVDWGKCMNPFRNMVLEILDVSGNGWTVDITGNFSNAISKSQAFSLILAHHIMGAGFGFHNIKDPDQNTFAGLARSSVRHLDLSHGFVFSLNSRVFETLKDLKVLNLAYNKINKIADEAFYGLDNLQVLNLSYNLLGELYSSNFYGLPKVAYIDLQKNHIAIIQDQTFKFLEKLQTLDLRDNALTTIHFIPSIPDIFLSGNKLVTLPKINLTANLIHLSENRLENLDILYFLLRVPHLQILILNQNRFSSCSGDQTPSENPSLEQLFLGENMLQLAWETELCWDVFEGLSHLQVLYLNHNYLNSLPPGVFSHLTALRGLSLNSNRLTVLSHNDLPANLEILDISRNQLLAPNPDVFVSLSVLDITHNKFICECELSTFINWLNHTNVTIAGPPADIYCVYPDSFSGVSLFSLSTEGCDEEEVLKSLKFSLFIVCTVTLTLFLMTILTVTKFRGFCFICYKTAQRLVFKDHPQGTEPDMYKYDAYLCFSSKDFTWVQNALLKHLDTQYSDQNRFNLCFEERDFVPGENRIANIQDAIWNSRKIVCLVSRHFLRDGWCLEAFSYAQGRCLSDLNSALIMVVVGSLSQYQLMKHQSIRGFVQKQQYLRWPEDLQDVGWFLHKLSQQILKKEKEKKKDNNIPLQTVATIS
T1 sequence (O60603 whole entry): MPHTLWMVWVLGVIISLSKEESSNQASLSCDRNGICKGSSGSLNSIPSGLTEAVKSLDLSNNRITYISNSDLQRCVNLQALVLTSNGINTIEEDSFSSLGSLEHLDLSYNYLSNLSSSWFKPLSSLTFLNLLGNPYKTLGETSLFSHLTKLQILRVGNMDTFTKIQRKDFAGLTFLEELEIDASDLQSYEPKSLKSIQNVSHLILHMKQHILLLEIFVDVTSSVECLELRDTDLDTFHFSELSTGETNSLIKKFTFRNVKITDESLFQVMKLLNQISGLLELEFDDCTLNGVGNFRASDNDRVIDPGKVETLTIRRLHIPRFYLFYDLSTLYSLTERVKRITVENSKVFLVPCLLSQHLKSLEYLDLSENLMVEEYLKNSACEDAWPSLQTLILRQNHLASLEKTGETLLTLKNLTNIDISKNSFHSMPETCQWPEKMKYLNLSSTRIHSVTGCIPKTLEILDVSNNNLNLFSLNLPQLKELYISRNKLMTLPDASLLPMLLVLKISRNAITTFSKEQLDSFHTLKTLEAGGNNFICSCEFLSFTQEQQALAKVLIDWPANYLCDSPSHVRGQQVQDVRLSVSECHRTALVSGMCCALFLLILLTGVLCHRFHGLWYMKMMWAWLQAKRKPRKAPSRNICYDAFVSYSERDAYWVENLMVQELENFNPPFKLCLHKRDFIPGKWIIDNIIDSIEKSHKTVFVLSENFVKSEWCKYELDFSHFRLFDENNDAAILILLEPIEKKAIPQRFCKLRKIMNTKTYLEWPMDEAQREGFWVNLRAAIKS
T1 sequence (Q9Y2C9 whole entry): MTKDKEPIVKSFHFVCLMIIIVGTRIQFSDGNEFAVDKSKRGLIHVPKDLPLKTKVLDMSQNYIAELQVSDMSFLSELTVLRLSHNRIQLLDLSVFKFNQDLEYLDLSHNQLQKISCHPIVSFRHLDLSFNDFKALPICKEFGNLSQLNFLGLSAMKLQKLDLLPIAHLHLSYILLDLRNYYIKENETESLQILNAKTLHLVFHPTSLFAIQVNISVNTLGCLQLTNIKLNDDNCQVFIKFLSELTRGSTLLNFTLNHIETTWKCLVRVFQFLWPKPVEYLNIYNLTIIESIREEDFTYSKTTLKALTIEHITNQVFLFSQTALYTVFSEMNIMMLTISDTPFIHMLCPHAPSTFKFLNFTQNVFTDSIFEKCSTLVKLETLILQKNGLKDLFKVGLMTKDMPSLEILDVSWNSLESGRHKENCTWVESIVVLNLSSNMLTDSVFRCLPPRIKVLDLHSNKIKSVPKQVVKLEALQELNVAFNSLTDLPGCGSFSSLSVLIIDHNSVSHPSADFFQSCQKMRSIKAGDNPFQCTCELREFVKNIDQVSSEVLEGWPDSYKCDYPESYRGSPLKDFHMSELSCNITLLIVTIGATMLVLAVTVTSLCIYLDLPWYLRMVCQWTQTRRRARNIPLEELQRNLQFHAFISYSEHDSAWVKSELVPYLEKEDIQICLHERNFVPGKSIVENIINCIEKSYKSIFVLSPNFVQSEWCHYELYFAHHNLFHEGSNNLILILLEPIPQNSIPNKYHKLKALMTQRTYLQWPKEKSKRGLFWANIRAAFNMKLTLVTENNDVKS
T2 sequence (O60603 whole entry): as the sequence (O60603 whole entry) above
T2 sequence (Q15399 whole entry): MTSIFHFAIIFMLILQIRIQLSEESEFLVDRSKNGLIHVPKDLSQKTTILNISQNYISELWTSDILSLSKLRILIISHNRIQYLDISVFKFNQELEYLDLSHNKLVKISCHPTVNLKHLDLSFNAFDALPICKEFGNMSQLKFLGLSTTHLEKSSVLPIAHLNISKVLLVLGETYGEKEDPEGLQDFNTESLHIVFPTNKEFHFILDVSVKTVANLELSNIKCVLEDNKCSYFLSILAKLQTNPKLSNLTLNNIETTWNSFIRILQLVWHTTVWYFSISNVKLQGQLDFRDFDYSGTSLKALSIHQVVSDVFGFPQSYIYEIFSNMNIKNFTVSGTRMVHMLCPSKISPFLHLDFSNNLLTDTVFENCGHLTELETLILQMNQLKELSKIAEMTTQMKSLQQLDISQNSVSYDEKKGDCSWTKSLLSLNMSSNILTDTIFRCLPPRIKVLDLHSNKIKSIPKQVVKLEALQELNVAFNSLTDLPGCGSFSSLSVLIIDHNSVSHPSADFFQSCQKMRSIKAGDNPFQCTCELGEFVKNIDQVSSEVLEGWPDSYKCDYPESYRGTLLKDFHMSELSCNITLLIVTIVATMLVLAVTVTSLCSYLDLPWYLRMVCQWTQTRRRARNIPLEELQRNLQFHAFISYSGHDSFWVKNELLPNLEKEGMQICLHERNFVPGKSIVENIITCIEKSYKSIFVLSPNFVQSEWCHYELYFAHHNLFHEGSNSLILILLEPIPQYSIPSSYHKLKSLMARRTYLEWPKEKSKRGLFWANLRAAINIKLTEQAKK
Chain of Toll-like receptor 4 (Homo sapiens, UniProt O00206) (O00206 whole entry): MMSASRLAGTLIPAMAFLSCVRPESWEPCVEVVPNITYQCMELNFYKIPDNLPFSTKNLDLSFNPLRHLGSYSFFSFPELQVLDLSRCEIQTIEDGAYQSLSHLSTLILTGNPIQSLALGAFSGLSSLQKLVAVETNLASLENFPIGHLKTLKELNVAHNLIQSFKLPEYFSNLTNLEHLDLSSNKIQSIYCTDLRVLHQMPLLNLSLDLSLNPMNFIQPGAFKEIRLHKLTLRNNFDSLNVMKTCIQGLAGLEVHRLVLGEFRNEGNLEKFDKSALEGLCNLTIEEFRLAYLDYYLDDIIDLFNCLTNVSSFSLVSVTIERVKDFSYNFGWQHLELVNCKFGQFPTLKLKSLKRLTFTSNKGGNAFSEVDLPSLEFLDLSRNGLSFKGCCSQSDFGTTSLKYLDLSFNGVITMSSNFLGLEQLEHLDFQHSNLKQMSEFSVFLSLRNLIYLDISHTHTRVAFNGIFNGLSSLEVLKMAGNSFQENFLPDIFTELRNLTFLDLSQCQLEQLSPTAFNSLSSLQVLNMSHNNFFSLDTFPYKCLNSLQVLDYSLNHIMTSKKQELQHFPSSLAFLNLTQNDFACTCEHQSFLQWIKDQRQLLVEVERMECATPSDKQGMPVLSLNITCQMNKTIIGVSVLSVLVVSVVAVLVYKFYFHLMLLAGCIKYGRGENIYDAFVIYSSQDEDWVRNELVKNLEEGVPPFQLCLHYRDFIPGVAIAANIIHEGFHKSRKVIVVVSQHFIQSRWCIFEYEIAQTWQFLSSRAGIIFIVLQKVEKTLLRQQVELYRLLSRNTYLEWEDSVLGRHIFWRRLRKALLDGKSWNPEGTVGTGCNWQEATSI

As for `CCOC(=O)c1ccc(CC(=O)c2ccc(O)c(O)c2O)o1`, the pIC50 is 5.24 in test [1] and 5.77 in test [2]. Take `COc1cccc(C=O)c1O`: the figures for the pIC50 in [3] and in test [4] were 4.62 and 4.43, respectively. Regarding `COCCOc1nc(N)c2[nH]c(=O)n(Cc3ccccc3)c2n1`, the pEC50 in test [5] is 6.85.

For the molecule `CCCCCCOC(=O)c1cc(O)c(=O)c2c(O)c(O)c(OC)cc2c1`, the pIC50 was 5.25 in test [1], 5.04 in test [2] and 6.24 in [6]. Take `COc1cccc(/C=N/c2cccc(C(=O)O)c2C)c1O`: the pIC50 in test [3] is 4.71; in [4], 4.42.

Molecule `O=C(N[C@H](Cc1ccccc1)C(=O)O)c1sc2cc(F)ccc2c1Cl` showed a pIC50 in [7] of 5.46. In turn, `Cc1cccc(-c2ccnc3c(C(N)=O)cnn23)c1` showed a pKd in [8] of 6.66. `CCOC(=O)c1c(NC(=O)N2CCN(C)CC2)sc2c1CCC2` gave a negative-log EC50 (pEC50) in [9] of 6.26.

As to `COc1ccc2c(-c3cnc(OCc4ccccc4)c(C)c3)ccnc2c1`, the negative-log IC50 (pIC50) in test [10] is 9.10. Same read-out and setting: as for `COc1ccc2c(-c3ccc(OCCCCO)c(C)c3)ccnc2c1`, the figure is 10.00. Regarding `O=C(N[C@H](Cc1ccccc1)C(=O)O)c1cc2c(s1)CCCCC2`, the pIC50 in test [7] is 3.81.

Take `CCCCn1cc2c(n1)c(N)nc1ccccc12`: the pEC50 is 7.25 in test [11] and 6.72 in test [12].

Consider `CCCN(CCC)C(=O)C1=Cc2ccc(C(=O)NC(c3ccccc3)c3ccccc3)cc2N=C(N)C1`, for which the pEC50 in test [5] is < 7.00. Same read-out and setting: as for `CCCN(CCC)C(=O)C1=Cc2ccc(C(=O)N3CC4(C3)CN(c3ccc(C)cc3)C4)cc2N=C(N)C1`, the figure is < 7.00. `c1ccc(-n2c(Sc3ncnc4c3sc3ncccc34)nnc2-c2ccncc2)cc1` gave a negative-log IC50 (pIC50) in test [13] of 5.50.

For the molecule `O=c1occ2c3c(ccc(O)c13)Oc1ccc(O)cc1-2`, the pIC50 in [14] is ~5.00.

Take `CCCCc1nc2c(N)nc3ccccc3c2o1`: the pEC50 in [11] is 6.74.

On to `CCCN(CCC)C(=O)C1=Cc2ccc(-c3cccc(C(=O)CC)c3)cc2N=C(N)C1`, for which the pEC50 is 7.80 in test [5] and 8.10 in [15]. In the case of `Cc1cc(C)c2c(n1)sc1c(Sc3nnc(-c4ccncc4)o3)ncnc12`, the pIC50 in [13] was 4.30.

As for `c1cnc2sc3c(Sc4nnc(-c5ccncc5)o4)ncnc3c2c1`, the pIC50 in test [13] is 5.47.

For the molecule `CCc1nc2c(N)nc3ccccc3c2n1CCCCNS(C)(=O)=O` [CPG-52852], in test [5], the pEC50 was ~5.52. For `CCCN(CCC)C(=O)C1=Cc2ccc(-c3ccc(C(=O)N4CCCC4)cc3)cc2N=C(N)C1` [MOTOLIMOD], the pEC50 in [15] is ~7.00.

In the case of `CCOC(=O)C1=CCCC[C@H]1S(=O)(=O)Nc1ccc(F)cc1Cl` [RESATORVID], the pIC50 was 8.89 in [16], 8.74 in test [17] and 8.72 in [18]. In test [19], `CCCCCCCCCC(CCCCCCCCC)CC(=O)OC[C@H]1O[C@H](O[C@H]2O[C@H](COC(=O)CC(CCCCCCCCC)CCCCCCCCC)[C@@H](O)[C@H](O)[C@H]2O)[C@H](O)[C@@H](O)[C@@H]1O` [VIZANTIN] showed a negative logarithm of the IC50 (pIC50) of 7.28.
